Here are results for seven molecules from DBAASP.

Test systems include Escherichia coli O157; Listeria monocytogenes; Salmonella typhimurium; Candida albicans MDM8; Escherichia coli SBS 363; Micrococcus luteus A270; Corynebacterium xerosis; Escherichia coli UB1005; Streptococcus mitis.
Common to all, as to test: ≥ marks a high value that may be exact or a test limit, other limits are often not marked, values filed in µg/mL are converted to µM
Test [1] deals with Acinetobacter baumannii ATCC 17978.
For test [2], the system named is Candida albicans ATCC 90028.
Test [3] deals with Escherichia coli NCTC 12923.
The test system of test [4] is Klebsiella pneumoniae NCTC 13368.
Test [5] deals with Pseudomonas aeruginosa PAO1.
Test [6] relates to Staphylococcus aureus ATCC 9144.
Test [7] relates to Staphylococcus aureus USA 300.
In test [8] the test system is Escherichia coli ATCC 25404.
For test [9], the system named is Escherichia coli DH5alpha.
The test system of test [10] is Klebsiella pneumoniae ATCC 10031.
Test [11] concerns Micrococcus luteus ATCC 10420.
Test [12] deals with Micrococcus luteus ATCC 4698.
The subject of test [13] is Salmonella enterica subsp. enterica serovar Typhimurium ATCC 14028.
Test [14] concerns Staphylococcus aureus ATCC 29213.
For test [15], the system named is Staphylococcus aureus ATCC 43300.
In test [16] the test system is Staphylococcus aureus ATCC 6538.
In test [17] the test system is Staphylococcus epidermidis ATCC 12228.
The test system of test [18] is Staphylococcus epidermidis ATCC 9709.
The subject of test [19] is Staphylococcus aureus ATCC 25923.
Test [20] relates to Bacillus megaterium ATCC 10778.
The subject of test [21] is Bacillus subtilis ATCC 6633.
The subject of test [22] is Candida tropicalis IOC 4560.
Test [23] has as its system Enterobacter cloacae beta-12.
For test [24], the system named is Pseudomonas aeruginosa NCIB 10421.
Test [25] deals with Serratia marcescens ATCC 4112.
For test [26], the system named is Enterococcus faecalis ATCC 29212.
The subject of test [27] is Pseudomonas aeruginosa K799.
For test [28], the system named is Salmonella enterica subsp. enterica serovar Typhimurium ATCC 14028s.
The subject of test [29] is Staphylococcus epidermidis C621.
In test [30] the test system is Streptococcus pneumoniae ATCC 49619.
Test [31] relates to Streptococcus pyogenes ATCC 19615.

By MIC is commonly meant the lowest concentration that inhibits growth of the organism. A lower MIC goes with greater potency.

In brackets after ≈: the same amount, converted by molar mass. Several values for one entry are separate records, joined by “and”; a condition that tells them apart may be missing. Identical values can stand only once.

As for `C[C@H](NC(=O)CNC(=O)[C@H](CCCCN)NC(=O)[C@@H](N)CS)C(=O)N[C@@H](Cc1ccccc1)C(=O)N[C@@H](CCCCN)C(=O)N[C@@H](CCC(N)=O)C(=O)N[C@H](C(=O)N[C@@H](CS)C(=O)N[C@@H](CCCCN)C(=O)N[C@@H](CS)C(=O)N[C@@H](Cc1ccc(O)cc1)C(N)=O)[C@@H](C)O` [CKGAFKQTCKCY], the minimum inhibitory concentration (MIC) in test [1] is no less than 92.8 µM; in test [2] it was 4.4 µM (≈ 6.07 µg/mL); in test [3], no less than 92.8 µM; in test [4], no less than 92.8 µM; in test [5], greater than 92.8 µM; in test [6], no less than 92.8 µM. This molecule also displayed an MIC in test [7] of no less than 92.8 µM.
As for `CC(C)C[C@H](NC(=O)[C@H](CC(C)C)NC(=O)[C@H](CCCCN)NC(=O)[C@H](CO)NC(=O)[C@H](CC(C)C)NC(=O)[C@H](C)NC(=O)[C@H](CCCCN)NC(=O)[C@H](Cc1ccccc1)NC(=O)[C@H](CC(C)C)NC(=O)[C@H](C)NC(=O)CNC(=O)[C@H](CC(C)C)NC(=O)[C@@H](N)Cc1ccccc1)C(=O)O` [FLGALFKALSKLL], the MIC in test [8] was no less than 64 µM; in [9] it was no less than 98.5 µM; against Escherichia coli O157 it was no less than 64 µM; in test [10], 17.6 µM (≈ 25 µg/mL); against Listeria monocytogenes, 2 µM (≈ 2.84 µg/mL); in test [11], 2 µM (≈ 2.84 µg/mL). Further, the MIC was 2.11 µM (≈ 3 µg/mL) in test [12]; greater than 70.4 µM in [13]; no less than 64 µM with Salmonella typhimurium; 4 µM and > 2 µM in test [14]; 4 µM (≈ 5.68 µg/mL) in [15]; 3.52 µM (≈ 5 µg/mL) in test [16]. Also, the results for the minimum inhibitory concentration (MIC) in test [17] and in [18] were 6.33 µM (≈ 9 µg/mL) and 4 µM (≈ 5.68 µg/mL), respectively.
Take `CC(C)C[C@H](NC(=O)[C@H](CC(C)C)NC(=O)[C@H](Cc1cnc[nH]1)NC(=O)[C@H](CO)NC(=O)[C@H](CC(C)C)NC(=O)[C@H](C)NC(=O)[C@H](CCCCN)NC(=O)[C@H](Cc1c[nH]c2ccccc12)NC(=O)[C@H](CC(C)C)NC(=O)[C@H](C)NC(=O)CNC(=O)[C@H](CC(C)C)NC(=O)[C@@H](N)Cc1ccccc1)C(=O)O` [FLGALWKALSHLL]: the MIC is no less than 64 µM in [8]; no less than 64 µM in the test on Escherichia coli O157; 8 µM (≈ 11.8 µg/mL) in the test on Listeria monocytogenes; 4 µM (≈ 5.88 µg/mL) in [11]; no less than 64 µM against Salmonella typhimurium; 4 µM (≈ 5.88 µg/mL) in test [19]. Further, the MIC in test [18] stood at 4 µM (≈ 5.88 µg/mL).
Consider `CC[C@H](C)[C@H](N)C(=O)N[C@@H](CC(C)C)C(=O)NCC(=O)N[C@@H](CCCCN)C(=O)N[C@@H](Cc1ccccc1)C(=O)N[C@@H](Cc1c[nH]c2ccccc12)C(=O)N[C@@H](CCC(=O)O)C(=O)NCC(=O)N[C@H](C(=O)N[C@@H](CCCCN)C(=O)N[C@@H](CO)C(=O)N[C@@H](CC(C)C)C(=O)N[C@@H](Cc1ccccc1)C(N)=O)[C@@H](C)CC` [ILGKFWEGIKSLF], for which the MIC in test [20] is 0.78 µM (≈ 1.2 µg/mL); in test [21], 0.78 µM (≈ 1.2 µg/mL); with Candida albicans MDM8, 3.13 µM (≈ 4.81 µg/mL); in [22], 1.56 µM (≈ 2.4 µg/mL); in test [23], 12.5 µM (≈ 19.2 µg/mL); against Escherichia coli SBS 363, 3.13 µM (≈ 4.81 µg/mL). Besides, the MIC was 0.78 µM (≈ 1.2 µg/mL) against Micrococcus luteus A270, 25 µM (≈ 38.4 µg/mL) in test [24], 0.78 µM (≈ 1.2 µg/mL) in [25] and 6.25 µM (≈ 9.61 µg/mL) in [14].
Take `CC[C@H](C)[C@H](N)C(=O)N[C@@H](CC(C)C)C(=O)N[C@@H](CC(C)C)C(=O)N[C@@H](CCCCN)C(=O)N[C@H](C(=O)N[C@@H](Cc1c[nH]c2ccccc12)C(=O)N[C@@H](CCC(=O)O)C(=O)NCC(=O)N[C@H](C(=O)N[C@@H](CCCCN)C(=O)N[C@@H](CO)C(=O)N[C@@H](CC(C)C)C(=O)N[C@@H](Cc1ccccc1)C(N)=O)[C@@H](C)CC)[C@@H](C)CC` [ILLKIWEGIKSLF]: the MIC in [20] was found to be 0.78 µM (≈ 1.22 µg/mL); in test [21], 0.78 µM (≈ 1.22 µg/mL); in the test on Candida albicans MDM8, 3.13 µM (≈ 4.88 µg/mL); in test [22], 3.13 µM (≈ 4.88 µg/mL); in test [23], 12.5 µM (≈ 19.5 µg/mL); against Escherichia coli SBS 363, 0.78 µM (≈ 1.22 µg/mL). The MIC against Micrococcus luteus A270 is 0.78 µM (≈ 1.22 µg/mL); in [24] it was no less than 50 µM; in [25], 0.36 µM (≈ 0.561 µg/mL); in [14], 1.56 µM (≈ 2.43 µg/mL).
For the molecule `CC[C@H](C)[C@H](NC(=O)[C@@H](NC(=O)[C@@H](NC(=O)[C@@H](NC(=O)[C@@H]1CCCN1C(=O)[C@H](CS)NC(=O)[C@H](CCCN=C(N)N)NC(=O)[C@H](CCCN=C(N)N)NC(=O)[C@@H](N)CCCN=C(N)N)[C@@H](C)CC)C(C)C)C(C)C)C(=O)N[C@@H](CCCN=C(N)N)C(=O)N[C@H](C(=O)N[C@@H](CS)C(=O)N[C@@H](CCCN=C(N)N)C(=O)N[C@@H](CCCN=C(N)N)C(=O)O)C(C)C` [RRRCPIVVIRVCRR], the MIC was 0.281 µM (≈ 0.5 µg/mL) against Corynebacterium xerosis; 35.9 µM (≈ 64 µg/mL) in [26]; 4.49 µM (≈ 8 µg/mL) against Escherichia coli UB1005; 1.12 µM (≈ 2 µg/mL) in the test on Listeria monocytogenes; no less than 35.9 µM in test [27]; no less than 35.9 µM in [28]. Moreover, the MIC was greater than 35.9 µM in [19]; 8.98 µM (≈ 16 µg/mL) in test [29]; 0.281 µM (≈ 0.5 µg/mL) against Streptococcus mitis; no less than 35.9 µM in test [30]; 8.98 µM (≈ 16 µg/mL) in [31].
Turning to `CC[C@H](C)[C@H](NC(=O)[C@@H](NC(=O)[C@@H](NC(=O)[C@@H]1CCCN1C(=O)[C@H](CS)NC(=O)[C@H](CC(C)C)NC(=O)[C@H](CCCN=C(N)N)NC(=O)[C@H](CCCN=C(N)N)NC(=O)[C@@H](N)CCCN=C(N)N)[C@@H](C)CC)C(C)C)C(=O)N[C@@H](CCCN=C(N)N)C(=O)N[C@H](C(=O)N[C@@H](CS)C(=O)N[C@@H](CCCN=C(N)N)C(=O)N[C@@H](CCCN=C(N)N)C(=O)O)C(C)C` [RRRLCPIVIRVCRR], the minimal inhibitory concentration (MIC) in the test with Corynebacterium xerosis amounted to 0.278 µM (≈ 0.5 µg/mL); in test [26], 17.8 µM (≈ 32 µg/mL); against Escherichia coli UB1005 it was 2.23 µM (≈ 4 µg/mL); against Listeria monocytogenes, 0.557 µM (≈ 1 µg/mL); in test [27] it was 17.8 µM (≈ 32 µg/mL); in test [28], 17.8 µM (≈ 32 µg/mL). Also, the MIC in [19] was greater than 35.6 µM; in test [29], 4.45 µM (≈ 8 µg/mL); against Streptococcus mitis it was 0.557 µM (≈ 1 µg/mL); in test [30], no less than 35.6 µM; in test [31], 4.45 µM (≈ 8 µg/mL).
